Measured values from patent US8158389B2, “Products and methods for in vivo secretion of monatin” (priority 2005, dated 2012).

Assays:
Assay type in all cases: cell-based, Escherichia coli
[1] = system: E. coli BL21 DE3; test: Preliminary study: novobiocin tolerance after sodium decanoate addition; conditions: 2.5 mM sodium decanoate added to the medium
Description: This was taken as evidence that acrAB genes are induced with sodium decanoate addition and conferred resistance to novobiocin. Rosenberg, E. Y., et al., Molecular Microbiol. 48:1609-1619, (2003).

[2] = system: E. coli MG1655::aspCproApProNde (control); test: AcrAB k.o. validation: growth (OD 600 nm) with novobiocin / sodium decanoate, control strain; conditions: sodium decanoate 2.5 mM; novobiocin 0 ppm
Protocol: Single chloramphenicol-resistant colonies were purified by restreaking on appropriate selective media and single colonies were tested by PCR as previously described for the BW25113 knockout strains, to verify the presence of the emrB and acrAB knockouts. The effects of the emrB and acrAB knockouts on the EmrAB and AcrAB transporter systems respectively were determined by assessing the phenotype of the transport mutants using appropriate antibiotics and comparison to wild type control microorganisms as shown in Table 3.1 and Table 3.2 below.

[3] = system: E. coli MG1655; test: Monatin excretion with 2.5 mM sodium decanoate, E. coli MG1655 strains with pUC19, marA or baeR (30, 72 h)
Description: The strain used for the experiment was E. coli MG1655: : aspC/proA/pProNde together with the marA gene from E. coli cloned into the pUC19 vector (GenBank/EMBL accession number L09137). The control strain was E. coli MG1655: : aspC/proA/pProNde along with the pUC19 vector. The marA gene was amplified from E. coli W3110 with PCR technology (known to one skilled in the art) using the primers E. coli MarASalIF-5′[…]3′ (SEQ ID NO. 24) and E. coli MarABamHIR-5′[…]3′ (SEQ ID NO. 25). For inoculum, the E. coli strains were grown overnight at 37° C. and 250 rpm in Luria-Bertani (“LB”) medium with 100 μg/mL ampicillin and 50 μg/mL kanamycin.
For the experimental treatments, Trp-1+glucose medium, a minimal medium that has been used for increased production of tryptophan in E. coli cells (Zeman, et al. Folia Microbiol. 35:200-204, (1990)), was prepared as follows. To 800 mL nanopure water the following reagents were added: 2 g (NH4)2SO4 and 13.6 g KH2PO4. The pH was adjusted to 7.0, the volume was increased to 948 mL, and the medium was autoclaved. Following sterilization, 0.2 g MgSO4.7H2O, 0.01 g CaCl2.2H2O, and 0.5 mg FeSO4.7H2O were added to the medium in a 1.8 mL volume followed by addition of 0.2 mL of Neidhardt's micronutrient solution. Neidhardt F. C., et al., “Culture medium for Enterobacteria,” J. Bacteriol. 119:736-746, (1974). Neidhardt's medium includes (per liter): 0.18 g (NH4)6(MO7)24.4H2O, 1.24 g H3BO3, 0.36 g CoCl2.6H2O, 0.12 g CuSO4 (anhydrous), 0.8 g MnCl2.4H2O, and 0.14 g ZnSO4.7H2O. A 50% glucose solution was prepared separately and sterile-filtered. Forty mL of glucose solution and 10 mL of 1 M 3-Morpholinopropanesulfonic acid (“MOPS”) buffer were added to the base medium (950 mL) for a 1 L final volume.
Conditions for the treatments included 250 rpm agitation throughout and 37° C. up to induction, then, 30° C. following induction. At an OD600 nm between 0.35-0.50, induction of the plasmid genes was initiated. At induction, 1.0 mM IPTG, 0.5% L-arabinose, 0.5 mM pyridoxine hydrochloride, and 0.2 mLs of Balch's vitamins were added. Additions of 10 g/L L-tryptophan, 10 g/L sodium pyruvate, 0.04 mM pyridoxal-5′-phosphate (“PLP”) and 0.2% Tween® 20 (polyoxyethylene 20-sorbitan monolaurate) were made 3.0 hours following induction. At 24 hours after inoculation, 10 g/L of sodium pyruvate was added to each flask again. Some treatments included 2.5 mM sodium decanoate addition at 3.0 hours following induction.
The strains used for the experiment were E. coli. MG1655 : : aspC/proA/pProNde in combination with either baeR or no insert in the pUC19 vector. The baeR gene was amplified from E. coli W3110 by using primers, E. coli baeRSalIF 5′[…]3′ (SEQ ID NO. 26) and E. coli baeRBamHIR 5′[…]3′ (SEQ ID NO. 27), which introduced SalI and BamHI sites at the end of the amplified fragment. The PCR fragment was cloned between the SalI and BamHI sites of the vector pUC19 (GenBank/EMBL accession number L09137). For inoculum, the E. coli strains were grown overnight at 37° C. and 250 rpm in Luria-Bertani (“LB”) medium with 100 μg/mL ampicillin and 50 μg/mL kanamycin.
For the experimental treatments, Trp-1+glucose medium, a minimal medium that has been used for increased production of tryptophan in E. coli cells (Zeman et al. Folia Microbiol. 35:200-204, (1990)), was prepared as follows. To 800 mL nanopure water the following reagents were added: 2 g (NE4)2SO4 and 13.6 g KH2PO4. The pH was adjusted to 7.0, the volume was increased to 948 mL, and the medium was autoclaved. Following sterilization, 0.2 g MgSO4.7H2O, 0.01 g CaCl2.2H2O, and 0.5 mg FeSO4.7H2O were a to the medium in a 1.8 mL volume followed by addition of 0.2 mL of Neidhardt's micronutrient solution. Neidhardt F. C., et al., “Culture medium for Enterobacteria,” J. Bacteriol. 119:736-746 (1974). Neidhardt's medium includes (per liter): 0.18 g (NH4)6(MO7)24.4H2l O, 1.24 g H3BO3, 0.36 g CoCl2.6H2O, 0.12 g CuSO4 (anhydrous), 0.8 g MnCl2.4H2O, and 0.14 g ZnSO4.7H2O. […]

[4] = system: E. coli MG1655 ΔAcrAB; test: Monatin excretion with 2.5 mM sodium decanoate, E. coli MG1655 ΔAcrAB with or without marA (24, 30, 72 h); conditions: n = 2
[5] = E. coli MG1655 AspC ProA pProNde del BaeR pUC19, n = 2
[6] = E. coli MG1655 AspC ProA pProNde del MarA pUC19, n = 2
[7] = E. coli MG1655 aspC proA pProNde del pUC19 (control), n = 2
[8] = ΔAcrAB AspC ProA pProNde del pUC19 (control)

SMILES: CCCCCCCCCC(=O)[O-].[Na+] [sodium decanoate]
- tolerance to novobiocin [1]: 80 to 160 µg/mL
- OD 600 nm at 19 hours [2]: 1.396
- Mean monatin per dry cell weight, 30 hours [3, 5]: 16.2 mg/g
- Mean monatin per dry cell weight, 72 hours [3, 5]: 66.8 mg/g
- Mean monatin per dry cell weight, 30 hours [3, 6]: 8.5 mg/g
- Mean monatin per dry cell weight, 72 hours [3, 6]: 51.9 mg/g
- Mean monatin per dry cell weight, 30 hours [3, 7]: 2.4 mg/g
- Mean monatin per dry cell weight, 72 hours [3, 7]: 2.7 mg/g
- Mean monatin per dry cell weight, 24 [4, 8]: 22.2 mg/g
- Mean monatin per dry cell weight, 30 [4, 8]: 20.6 mg/g
- Mean monatin per dry cell weight, 72 [4, 8]: 62.6 mg/g
- Mean monatin per dry cell weight, 24 ([4]; ΔAcrAB with marA insert): 54.6 mg/g
- Mean monatin per dry cell weight, 30 ([4]; ΔAcrAB with marA insert): 56.0 mg/g
- Mean monatin per dry cell weight, 72 ([4]; ΔAcrAB with marA insert): 209.0 mg/g
